Results on 1 compound are retold here after patent US6602673B2, “Huntingtin-related therapeutics and bioassay” (University of Massachusetts, priority 1996, dated 2003).

In the assay the test system is human fibroblasts. Kind of assay: Brefeldin A (BFA) treatment of human fibroblasts, immunofluorescence localization of huntingtin, 58 kDa Golgi protein and tubulin. Type of assay: cell-based. How it is done:
For the studies described herein, fibroblasts from passage number 10-15 were plated onto coverslips and grown in culture for 24-48 hours. Cells were rinsed briefly with phosphate buffered saline (PBS) and fixed for 10 minutes with 4% paraformaldehyde in PBS at room temperature. After fixation, cells were rinsed multiple times and stored at 4° C. in PBS. Huntingtin was immunolocalized in human fibroblasts using an affinity purified anti-peptide antibody, Ab 2527, at 2-4 μg/ml. In selected experiments, cells were also labeled with a monoclonal antiserum that recognizes clathrin heavy chain (2 μg/ml, Biodesign Int., Kennebunk, Me.), the Golgi-associated 58 kDa protein (ascites serum diluted 1:100, Sigma Chemical Co., St. Louis, Mo.), or human transferrin receptor (5 μg/ml, Zymed Laboratories Inc., San Francisco, Calif.). Cells were made permeable by a 30 minute incubation in 0.1% Triton® X-100 in PBS, rinsed several times, and blocked with 5% normal goat serum for 60 minutes prior to incubation in primary antibodies. All incubations, whether performed with a single type of antibody or two types of antibodies, were carried out overnight at 4° C. and were followed by multiple rinses in PBS. Secondary antibodies were used at a 1:400 dilution. A pooled mixture of either Texas Red goat anti-mouse IgG (Molecular Probes Inc., Eugene, Oreg.) and Bodipy FL anti-rabbit IgG (Molecular Probes Inc, Eugene, Oreg.) or Texas Red goat anti-mouse IgM (Vector Laboratories, Burlingame, Calif.) and Bodipy FL anti-rabbit IgG were used. For immunoperoxidase labeling, cells were rinsed several times after the primary incubation and an avidin/biotin blocking procedure was performed prior to the incubation in secondary antibody. A Vectastain ABC™ kit (Vector Laboratories, Burlingame, Calif.) was employed to localize the primary antibody, and diaminobenzidine was used as a substrate for visualization of the peroxidase reaction product. Sections were examined using conventional immunofluorescence microscopy and a Biorad 1024 laser confocal microscope. Image processing was performed with Adobe Photoshop™.
To further establish the association of huntingtin with Golgi membranes, cells were treated with the fungal metabolite Brefeldin A (BFA).
Cells were briefly rinsed with Hank's balanced salt solution (HBSS) and then incubated in complete medium containing BFA (5 μg/ml; Gibco/BRL). The cells were incubated at either 18° C. or 37° C. for 10 minutes, then rinsed briefly with 50 mM phosphate buffered saline (PBS; pH 7.4) and fixed immediately for 10 minutes with 4% paraformaldehyde in PBS at room temperature.

As for `C[C@H]1CCC/C=C/[C@@H]2C[C@H](O)C[C@H]2[C@H](O)/C=C/C(=O)O1` [BFA, Brefeldin A], the “Distribution of tubulin in BFA-treated cells” value (compared to untreated cells) was “unchanged”. The “Huntingtin localization after mild BFA treatment” value (mild BFA treatment, 5 μg for 10 min at 18° C., human fibroblasts) is “fragmented and dispersed”. For the same compound, the “Huntingtin localization after more severe BFA treatment” value (more severe BFA treatment, human fibroblasts) is given as “obliterated”. The “Localization of huntingtin and the 58 kDa protein in the presence of bfa (figure legend)” value (normal fibroblasts, +bfa, FIGS. 3C and 3D) is “more widely dispersed from the nucleus and the Golgi-membrane architecture is disrupted”.
